# Data from patent US8628683B2 (Innospec Limited, priority 2007, dated 2014).
# How the values were obtained:
# [1] = Appearance of solid samples stored at ambient temperatures over time; format: physicochemical; details: ambient storage
# Excerpt: (§1) Samples of the materials were stored at ambient temperatures and the appearance of the samples and the mass thereof were noted over time.
# [2] = Increase in mass of solid samples stored at ambient temperatures over time; format: physicochemical; details: ambient storage
# Excerpt: as §1
# [3] = solid form of the commercially available material; cited from earlier work
smiles,measurement,setting,value
"O=C1CCC(=O)ON2CCN(O1)OC(=O)CCC(=O)O2.[Na].[Na].[Na] [Na3EDDS, trisodium ethylenediamine disuccinate]","Appearance (2 h), printed in the column after 24 hr",[1]; 2 h,Sticky solid
same,Appearance after 48 hr,[1]; 48 hr,Very stick
same,Appearance after 72 hr,[1]; 72 hr,Very sticky
same,Initial Appearance,[1]; initial,Free flowing
same,% increase in mass after 2 h,[2]; 2 h,7.4%
same,% increase in mass after 4 h,[2]; 4 h,8.9%
same,% increase in mass after 72 h,[2]; 72 h,25%
same,hygroscopicity of the solid form,[3],very hygroscopic
